Laboratory results taken from patent US20060135569A1, “Use of benzisoselenazolone compounds against ischemic myocardial damage” (priority 2002, published 2006).
Marks after values point to notes of the source that are not given here.

What was measured:
[1] = system: acute myocardial ischemia in anesthetized dogs; assay: Acute myocardial ischemia and infarction in anesthetized dogs; format: in vivo, dog
Procedure: Dogs were divided into three groups: 1, vehicle control group, PEG 1 ml/kg, n=5; 2, dilthiazem group, 5 mg/kg, n=5; 3, IMM-004 group, 30 mg/kg, n=5. The tested drugs were prepared in distilled water at volume of 1 ml/kg. The tested items were administrated via duodenum by animals.

[2] = system: normal rats; assay: Cardiac function and hemodynamics in normal rats; format: in vivo, rat; settings: 30 mg/kg orally; normal anesthetized rats
Procedure: Method: Male SD rats, weighing 300-350 g were fasted for 12 hrs and anesthetized by i.p. treatment with 20% Urethane (0.5 ml/100 g, 1 g/kg). Polyethylene tubes (PE-50) were inserted into the left femoral artery, left femoral vein, right femoral vein and the left ventricle. The left femoral artery was cannulated for blood collection, and the left femoral vein was cannulated for liquid compensation, the right femoral artery was cannulated for blood pressure detection, the left ventricle was cannulated for ventricular pressure detection, the left femoral artery and ventricle were cannulated and the catheter was linked with pressure transducer by triplet. Signals were acquired by oscillograph and multi-channel biodynamic recorder linked with the pressure transducer. Rats in drug-treating group were orally administered with IMM-004 at 30 mg/kg, while rats in vehicle control group was orally treated with equal volume of vehicle (PEG). Left ventricular systolic pressure (LVSP), left ventricular end-diastolic pressure (LVEDP), and maximum rate of left ventricular pressure (±dp/dtmax), artery systolic pressure (SP), artery diastolic pressure (DP), mean artery pressure (MAP) and heart rate (HR) were recorded 40 min after the administration. Signals were continuously recorded in every 10 min.

[3] = Acute toxicity study in mice; format: in vivo; settings: male, KM, mouse, in vivo; oral, mice; read-out: LD50 (50% lethal dose)
Procedure: Acute toxicity studies were performed with IMM-004 and IMM-127 (synthesized by ourselves). The compound was provided as powder, which was milled and suspended in 0.5% carboxymethylcellulose sodium (CMC—Na) before use.
Male KM mice weighting 19±2 g were housed for an adaptation before use. Mice were randomly divided into groups, and each group consists of 10 animals. Mice were all fasted for 14 hrs before the administration of the tested compounds. Activity of mice in high dose group was reduced 30 min after the administration. 24 h after the administration, mice in each group were restored to normal. Mice were observed daily for a period of 7 days after the administration.

[4] = N-BT staining, Dilthiazem 5 mg/kg, IMM-004 30 mg/kg, % according to b137

O=c1c2cc(Cl)ccc2[se]n1-c1ccccn1 [IMM-004, 5-chloro-2-(2-pyridyl)-1,2-benz-isoselenazol-3(2H)-one]
infarction size (of heart) decrease compared with the vehicle control ([1]; 30 mg/kg): 69.18%
infarction size (of ventricle) decrease compared with the vehicle control ([1]; 30 mg/kg): 67.94%
Σ-ST decreased by ([1]; 30 mg/kg via duodenum, 180 min after administration): 53.90±20.60%
severity of myocardial ischemia (Σ-ST) ([1]; 30 mg/kg via duodenum, 180 min after administration, from 325.20±55.95 mV): 146.80±60.25 mV
Coronary flow (under heading arterial and venous blood oxygen content) ([1]; 30 mg/kg, 120 min and 180 min after administration, vs baseline): significantly increased
Myocardial infarction size, % of heart ([1]; 30 mg/kg, N-BT staining): 2.04±0.93%
Myocardial infarction size, % of ventricular ([1]; 30 mg/kg, N-BT staining): 5.08±2.00%
elevation of LDH activity ([1]; 30 mg/kg, vs vehicle control): no effect
elevation of serum AST ([1]; 30 mg/kg, vs vehicle control): significantly inhibited
elevation of serum CK ([1]; 30 mg/kg, vs vehicle control): significantly inhibited
Coronary flow increase verse the baseline ([1]; 30 min after treatment, 30 mg/kg): 15.02±22.16%
Infarction area/ heart area [1, 4]: 2.04 ± 0.93
Infarction area/ventricle area [1, 4]: 5.08 ± 2.00
Infarction area mm^2 ([1]; N-BT staining, Dilthiazem 5 mg/kg, IMM-004 30 mg/kg, X ± SD): 255.70 ± 58.2*** mm^2
Myocardial infarction size, in words ([1]; N-BT staining, IMM-004 30 mg/kg, dilthiazem 5 mg/kg): significantly reduced
Coronary flows, in words ([1]; after treatment, dilthiazem 5 mg/kg, IMM-004 30 mg/kg): significantly increased
LVSP, LVEDP, ±dp/dtmax, SP, DP, MAP and heart rate (HR) [2]: not significantly influenced
LD50 at 7 days [3]: > 5000 mg/kg
